# Test results as given in US9834526B2 (MERCK SHARP & DOHME CORP., priority 2013, dated 2017).
# Target: T1, wildtype HIV-1 protease (Human immunodeficiency virus type 1 group M subtype B, UniProt P04585)
# T1 construct: preincubated with the HIV-1 protease (wild type) enzyme in assay buffer; made in house; host or cells: Escherichia coli
# Test: Inhibition of microbial expressed HIV protease (Pepcleav)
# Type: biochemical
# Details: wild type HIV-1 protease expressed in E. coli, 20 pM enzyme, 400 micromolar peptide substrate, pH 5.5, LC-MS readout; mean of at least two independent experiments
# Description: Assay for Inhibition of Microbial Expressed HIV Protease (“Pepcleav”)
# Studies of the inhibition of the wildtype HIV-1 protease (which was expressed in Escherichia coli) were carried out with a peptide substrate [Val-Ser-Gln-Asn-(βnaphthyl)Ala-Pro-Ile-Val (SEQ ID NO:1)]. The inhibitor was first preincubated with the HIV-1 protease (wild type) enzyme in assay buffer (50 mM sodium acetate, pH 5.5, 100 mM NaCl, and 0.1% BSA) for 30 minutes at room temperature. Substrate was added to 400 micromolar in a total volume of 20 microliters containing 20 picomolar HIV-1 protease (final) and the reaction was incubated for 1 hour at 30° C. The reaction was quenched with the addition of formic acid and indinavir to 0.012% and 150 nM final concentrations, respectively. The product formation was determined after separation of product and substrate on a Zorbax Eclipse XDB-C18 column connected to an API 4000 mass spectrometer (Applied Biosystems) with multiple reaction monitoring (transitions were 644.5/428.9 and 615.4/422.2 (M1/M3) for product and indinavir respectively). The extent of inhibition of the reaction was determined from the peak area of the products. Analysis of the products, independently synthesized, provided quantitation standards and confirmation of the product composition.
row,SMILES,IC50
1,"C[C@@H]1O[C@H](CCc2c(F)cncc2NC(=O)[C@@H](N)C(c2ccc(F)cc2)c2ccc(F)cc2)CN[C@@H]1COC(N)=O [Example 53, N-[4-(2-{(2R,5R,6S)-5-[(carbamoyloxy)methyl]-6-methylmorpholin-2-yl}ethyl)-5-fluoropyridin-3-yl]-4-fluoro-β-(4-fluorophenyl)-L-phenylalaninamide]",25 nM
2,"COC(=O)N[C@H](C(=O)Nc1ccccc1CC[C@@H]1CN[C@H](C)[C@@H](CSc2ccc(C)c(C)c2)O1)C(c1ccccc1)c1ccccc1 [Example 12, methyl N-[(1S)-1-benzhydryl-2-[[2-[2-[(2R,5R,6S)-6-[(3,4-dimethylphenyl)sulfanylmethyl]-5-methyl-morpholin-2-yl]ethyl]phenyl]amino]-2-oxo-ethyl]carbamate]",11.9 nM
3,"COC(=O)N[C@H](C(=O)Nc1ccccc1CC[C@@H]1CN[C@H](C)[C@@H](CSc2ccc(Cl)cn2)O1)C(c1ccccc1)c1ccccc1 [Example 8, methyl N-[(1S)-1-benzhydryl-2-[[2-[2-[(2R,5R,6S)-6-[(5-chloro-2-pyridyl)sulfanylmethyl]-5-methyl-morpholin-2-yl]ethyl]phenyl]amino]-2-oxo-ethyl]carbamate]",8.35 nM
4,"COC(=O)N[C@H](C(=O)Nc1ccccc1CC[C@@H]1CN[C@H](C)[C@@H](CSc2nc3ccc(Cl)nc3s2)O1)C(c1ccccc1)c1ccccc1 [Example 21, methyl N-[(1S)-1-benzhydryl-2-[[2-[2-[(2R,5R,6S)-6-[(5-chlorothiazolo[5,4-b]pyridin-2-yl)sulfanylmethyl]-5-methyl-morpholin-2-yl]ethyl]phenyl]amino]-2-oxo-ethyl]carbamate]",44.3 nM
5,"C[C@@H]1O[C@H](CCc2c(F)cccc2NC(=O)[C@@H](N)C(c2ccc(F)cc2)c2ccc(F)cc2)CN[C@@H]1COC(=O)N[C@H](C)C(F)(F)F [Example 61, 4-fluoro-N-[3-fluoro-2-(2-{(2R,5R,6S)-6-methyl-5-[({[(1R)-2,2,2-trifluoro-1-methylethyl]carbamoyl}oxy)methyl]morpholin-2-yl}ethyl)phenyl]-β-(4-fluorophenyl)-L-phenylalaninamide]",27 nM
6,"COC(=O)N[C@H](C(=O)Nc1ccccc1CC[C@@H]1CN[C@H](C)[C@@H](CSc2nc(C)cc(C)c2C#N)O1)C(c1ccccc1)c1ccccc1 [Example 27, methyl N-[(1S)-1-benzhydryl-2-[[2-[2-[(2R,5R,6S)-6-[(3-cyano-4,6-dimethyl-2-pyridyl)sulfanylmethyl]-5-methyl-morpholin-2-yl]ethyl]phenyl]amino]-2-oxo-ethyl]carbamate]",124 nM
7,"C[C@@H]1O[C@H](CCc2c(F)cccc2NC(=O)[C@@H](N)C(c2ccc(F)cc2)c2ccc(F)cc2)CN[C@@H]1COC(=O)N[C@@H](c1ccc(F)cc1)C1CC1 [Example 59, N-[2-(2-{(2R,5R,6S)-5-[({[(R)-cyclopropyl(4-fluorophenyl)methyl]carbamoyl}oxy)methyl]-6-methylmorpholin-2-yl}ethyl)-3-fluorophenyl]-4-fluoro-β-(4-fluorophenyl)-L-phenylalaninamide]",17 nM
8,"C[C@H]1O[C@H](CCc2c(F)cncc2NC(=O)[C@@H](N)C(c2ccc(F)cc2)c2ccc(F)cc2)CN[C@@H]1COC(=O)NCC(F)(F)F [Example 57, 4-fluoro-N-(5-fluoro-4-{2-[(2R,5R,6R)-6-methyl-5-({[(2,2,2-trifluoroethyl)carbamoyl]oxy}methyl)morpholin-2-yl]ethyl}pyridin-3-yl)-β-(4-fluorophenyl)-L-phenylalaninamide]",59 nM
9,COC(=O)N[C@H](C(=O)Nc1ccccc1CC[C@@H]1CN[C@H](C)[C@@H](CSc2cc(N3CCN(C)CC3)ncn2)O1)C(c1ccccc1)c1ccccc1 [Example 39],420 nM
10,"COC(=O)N[C@H](C(=O)Nc1ccccc1CC[C@@H]1CN[C@H](C)[C@@H](CSc2ncnc3c2ncn3[C@@H]2O[C@H](CO)[C@@H](O)[C@H]2O)O1)C(c1ccccc1)c1ccccc1 [Example 23, methyl N-[(1S)-1-benzhydryl-2-[[2-[2-[(2R,5R,6S)-6-[[9-[(2R,3R,4S,5R)-3,4-dihydroxy-5-(hydroxymethyl)tetrahydrofuran-2-yl]purin-6-yl]sulfanylmethyl]-5-methyl-morpholin-2-yl]ethyl]phenyl]amino]-2-oxo-ethyl]carbamate]",51.9 nM
11,"COC(=O)N[C@H](C(=O)Nc1ccccc1CC[C@@H]1CN[C@H](C)[C@@H](CSc2nc(C)c(C)o2)O1)C(c1ccccc1)c1ccccc1 [Example 16, methyl N-[(1S)-1-benzhydryl-2-[[2-[2-[(2R,5R,6S)-6-[(4,5-dimethyloxazol-2-yl)sulfanylmethyl]-5-methyl-morpholin-2-yl]ethyl]phenyl]amino]-2-oxo-ethyl]carbamate]",21.5 nM
12,"COC(=O)N[C@H](C(=O)Nc1ccccc1CC[C@@H]1CN[C@H](CO)[C@@H](CSc2nnc(-c3ccncc3)o2)O1)C(c1ccccc1)c1ccccc1 [Example 31, N-(2-{2-[(2R,5R,6S)-5-(hydroxymethyl)-6-({[5-(pyridin-4-yl)-1,3,4-oxadiazol-2-yl]sulfanyl}methyl)morpholin-2-yl]ethyl}phenyl)-Nα-(methoxycarbonyl)-β-phenyl-L-phenylalaninamide]",0.171 nM
13,"C[C@@H]1O[C@H](CCc2c(F)cncc2NC(=O)[C@@H](N)C(c2ccc(F)cc2)c2ccc(F)cc2)CN[C@@H]1COC(=O)NCC(F)(F)F [Example 54, 4-fluoro-N-(5-fluoro-4-{2-[(2R,5R,6S)-6-methyl-5-({[(2,2,2-trifluoroethyl)carbamoyl]oxy}methyl)morpholin-2-yl]ethyl}pyridin-3-yl)-β-(4-fluorophenyl)-L-phenylalaninamide]",30 nM
14,"C[C@H]1O[C@H](COc2c(F)cncc2NC(=O)[C@@H](N)C(c2ccc(F)cc2)c2ccc(F)cc2)CN[C@@H]1COC(N)=O [Example 52, N-[4-({(2S,5R,6R)-5-[(carbamoyloxy)methyl]-6-methylmorpholin-2-yl}methoxy)-5-fluoropyridin-3-yl]-4-fluoro-β-(4-fluorophenyl)-L-phenylalaninamide]",52 nM
15,"COC(=O)N[C@H](C(=O)Nc1ccccc1CC[C@@H]1CN[C@H](C)[C@@H](CS(=O)(=O)c2ccc(Cl)cc2)O1)C(c1ccccc1)c1ccccc1 [Example 40, N-(2-{2-[(2R,5R,6S)-6-{[(4-chlorophenyl)sulfonyl]methyl}-5-methylmorpholin-2-yl]ethyl}phenyl)-Nα-(methoxycarbonyl)-β-phenyl-L-phenylalaninamide]",750 nM
16,"C[C@H]1O[C@H](CCc2c(F)cccc2NC(=O)[C@@H](N)C(c2ccc(F)cc2)c2ccc(F)cc2)CN[C@@H]1COC(=O)NCc1ccc(F)cc1 [Example 56, 4-fluoro-N-(3-fluoro-2-{2-[(2R,5R,6R)-5-({[(4-fluorobenzyl)carbamoyl]oxy}methyl)-6-methylmorpholin-2-yl]ethyl}phenyl)-β-(4-fluorophenyl)-L-phenylalaninamide]",7 nM
17,"COC(=O)N[C@H](C(=O)Nc1ccccc1CC[C@@H]1CN[C@H](COCc2ccccc2)[C@@H](CO)O1)C(c1ccccc1)c1ccccc1 [Example 42, N-(2-{2-[(2R,5R,6S)-5-[(benzyloxy)methyl]-6-(hydroxymethyl)morpholin-2-yl]ethyl}phenyl)-Nα-(methoxycarbonyl)-β-phenyl-L-phenylalaninamide]",80 nM
18,"COC(=O)N[C@H](C(=O)Nc1ccccc1CC[C@@H]1CN[C@H](C)[C@@H](CSc2ncccc2Cl)O1)C(c1ccccc1)c1ccccc1 [Example 3, N-(2-{2-[(2R,5R,6S)-6-{[(3-chloropyridin-2-yl)sulfanyl]methyl}-5-methylmorpholin-2-yl]ethyl}phenyl)-Nα-(methoxycarbonyl)-β-phenyl-L-phenylalaninamide]",7.52 nM
19,"COC(=O)N[C@H](C(=O)Nc1ccccc1CC[C@@H]1CN[C@H](C)[C@@H](CSc2ncc[nH]2)O1)C(c1ccccc1)c1ccccc1 [Example 29, methyl N-[(1S)-1-benzhydryl-2-[[2-[2-[(2R,5R,6S)-6-(1H-imidazol-2-ylsulfanylmethyl)-5-methyl-morpholin-2-yl]ethyl]phenyl]amino]-2-oxo-ethyl]carbamate]",235 nM
20,"COC(=O)N[C@H](C(=O)Nc1ccccc1CC[C@@H]1CN[C@H](COC(=O)NCC(F)(F)F)[C@@H](CO)O1)C(c1ccccc1)c1ccccc1 [Example 46, N-(2-{2-[(2R,5R,6S)-6-(hydroxymethyl)-5-({[(2,2,2-trifluoroethyl)carbamoyl]oxy}methyl)morpholin-2-yl]ethyl}phenyl)-Nα-(methoxycarbonyl)-β-phenyl-L-phenylalaninamide]",65 nM
21,"COC(=O)N[C@H](C(=O)Nc1ccccc1CC[C@@H]1CN[C@H](C)[C@@H](CSc2nc3ccc(OC(F)F)cc3[nH]2)O1)C(c1ccccc1)c1ccccc1 [Example 17, methyl N-[(1S)-1-benzhydryl-2-[[2-[2-[(2R,5R,6S)-6-[[5-(difluoromethoxy)-1H-benzimidazol-2-yl]sulfanylmethyl]-5-methyl-morpholin-2-yl]ethyl]phenyl]amino]-2-oxo-ethyl]carbamate]",25.1 nM
22,COC(=O)N[C@H](C(=O)Nc1ccccc1CC[C@@H]1CN[C@H](COC(=O)NCC(F)(F)F)[C@@H](CSc2nnc(-c3ccncc3)o2)O1)C(c1ccccc1)c1ccccc1 [Example 43],0.01 nM
